These results are taken from patent publication US9988626B2, “Neurocalcin delta inhibitors and therapeutic and non-therapeutic uses thereof” (Universität Zu Köln, priority 2013, dated 2018).

In one data set the test system is zebrafish larvae. Briefly: TEM analysis of synaptic cleft width of zebrafish NMJs. In kind it is in vivo. As for the experimental part:
Whole zebrafish larvae were fixed in 4% PFA for 30 min and postfixed in 0.6% glutaraldehyde for 24 h. Larvae were embedded in Epoxy resin (Plano) and cross sections were performed according to previously described and adapted TEM protocol (Voigt et al. 2010). Thickness of semi-thin and ultra-thin sections was 0.5 μm and 0.1 μm, respectively. Image acquisition was performed as described in the supplement. Image acquisition was performed using the TEM CM10 (Philips) microscope with the Orius SC200W 1 Gatan camera and Digital Micrograph software.
48 hpf zebrafish larvae were fixed in 4% PFA for 30 min and postfixed in 0.6% glutaraldehyde for another day. Gold-labeled secondary antibodies were used for co-localization studies of Ncald and Clathrin. Image acquisition of ultra-thin sections with a thickness of […] was performed using the TEM CM10 (Philips) microscope with the Orius SC200W 1 Gatan camera and the Digital Micrograph software.
48 hpf zebrafish larvae were fixed in 4% PFA for […] and postfixed in 0.6% glutaraldehyde for another day. Samples were then prepared and embedded in resin as previously described. The thickness of semi-thin and ultra-thin sections was […], respectively. For immunogold stainings, in brie pre-stained sections were blocked and afterwards incubated with primary antibodies (anti-clathrin, 1:50, anti-NCALD, 1:50) and washed in PBS; after that sections were stained with gold-labelled secondary antibodies (donkey anti-mouse 6 nm gold, 1:100; goat anti-rabbit 20 nm gold 1:100; Abeam). Image acquisition was performed using the TEM CM10 (Philips) microscope with the Orius SC200W 1 Gatan camera and the Digital Micrograph software.

The next data set has as its system zebrafish embryos. Briefly: Zebrafish motor axon phenotype (znp-1 staining) after morpholino or mRNA injection. In kind it is in vivo. The settings on record: 34 hpf zebrafish, smn MO 4 ng, ncald MO 2 ng. How it is done: Zebrafish were dechorionated and fixed in 4% PFA-PBS 34 hours after fertilization. Collagenase digest was performed to permeabilize the larvae for the following antibody staining. In brief, fish were stained at 4° C. over night in 500 μl PBS-T/10% FCS containing znp-1 antibody (1:300, Hybridoma Bank). After all-day washing in PBS-T/1% FCS/1% BSA (changing solution every hour) fish were stained in PBS-T/1% DMSO/10% FCS containing secondary donkey anti-mouse antibody labelled with Alexafluor 488 (1:200, Invitrogen). After repeated washing, fish were stored in 80% glycerol/20% PBS in the dark at 4° C. Microscopic analysis of fish was performed in 80% glycerol on micro slides using a fluorescence microscope (Axioskop 2, Zeiss). The length of each of the first ten motoraxons behind the yolk was analyzed and evaluated. For NSC34 cell staining cells were fixed in 4% PFA for 15 min at RT. Following fixation, cells were rinsed 1× in PBS for 5 min. After another washing step with PBS, cells were permeabilized in 0.2% Triton X in PBS for 5 min. […]
The used antisense Morpholino (MO) was designed against the translational start codon of the ncald gene (Gene Tools, LLC): 5′-[…]-3′ (SEQ ID NO: 2). […] Six hours after injection embryos were sorted according to homogeneity of the rhodamine fluorescence signal reflecting the equal distribution of the injected MO solution. […]

[1] abbreviates: MO-injected 48 hpf fish, N=3, n=5 (FIG. 17E).

Entries after “also recorded” stand apart in the source; their conditions may differ.

With “smn MO: previously published morpholino knocking down zebrafish smn, CGACATCTTCTGCACCATTGGC (all phosphorodiamidate morpholino (PMO))”, in the data set with zebrafish larvae (Example 1, FIG. 8, 34 hpf zebrafish larvae), the “Width of synaptic cleft / NMJ maturation” value is “significant reduction of the width of the synaptic cleft”. In the data set with zebrafish larvae (setting [1]), the “Width of synaptic cleft, mean” value is reported as 30.26 nm and the “Width of synaptic cleft, median” value came out at 23.51 nm. The “Motor axon phenotype (truncation, branching)” value with zebrafish embryos is recorded as “high numbers of severely truncated motor neuron axons; also recorded: massive motor axon-specific outgrowth defects”.
